Test results: ChEMBL document CHEMBL1126253, “Energy aspects of oil/water partition leading to the novel hydrophobic parameters for the analysis of quantitative structure-activity relationships” (J Med Chem, 1992)

Columns and labels:
[1] = Partition coefficient (logD2.0); assay type: physicochemical; details: octanol/water
Rattus norvegicus [2] = species on record: Rattus norvegicus; assay: Concentration of the drug in the liver of rat; assay type: ADME, organism-based; details: in vivo
Rattus norvegicus [3] = species on record: Rattus norvegicus; assay: Concentration of the drug in the kidney of rat; assay type: ADME, organism-based; details: in vivo
[4] = log (1/C') was determined; assay type: ADME
Culicidae = assay: Concentration required to kill 50% of the mosquito larva in 24 hr.; assay type: organism-based; details: in vivo

Row | logD ([1]; pH 2, read-out: logD) | Log M (Rattus norvegicus [2]) | Log M (Rattus norvegicus [3]) | Structure (SMILES) | Log 1/C [4] | also measured
1 | 1.03 | – | – | NCc1ccc(C(=O)O)cc1 [AMINOMETHYLBENZOIC ACID] | – | –
2 | – | 0.92 | 0.89 | CCOc1ccc(C(=O)O)cc1 | – | –
3 | 2.99 | – | – | O=C(O)c1cccc(C(F)(F)F)c1 | – | –
4 | 2.27 | – | – | Cc1ccccc1C(=O)O [TOLUIC ACID] | – | –
5 | 3.09 | – | – | CCCOc1ccc(C(=O)O)cc1 | – | –
6 | 0.22 | 0.2 | 0.45 | CN(C)c1cccc(C(=O)O)c1 | – | –
7 | 2.45 | – | – | O=C(O)c1ccccc1I | 1.19 | –
8 | 3.18 | – | – | O=C(O)c1ccc(C(F)(F)F)cc1 | – | –
9 | 1.27 | -0.08 | -0.64 | CC(=O)Nc1ccc(C(=O)O)cc1 [ACEDOBEN] | – | –
10 | – | – | – | O=C(O)c1cccc(Br)c1 | 1.71 | logD [1]: 2.86
11 | 3.63 | – | – | CCCCc1ccc(C(=O)O)cc1 | – | –
12 | 2.14 | – | – | O=C(O)c1ccccc1Br | 1.9 | –
13 | 3.42 | – | – | CCCc1ccc(C(=O)O)cc1 | – | –
14 | – | – | – | O=C(O)c1ccc(Br)cc1 | 1.19 | logD [1]: 2.81; Log LD50: -2.03
15 | 1.2 | – | – | O=C(O)c1ccccc1[N+](=O)[O-] | 1.54 | –
16 | 1.76 | – | – | O=Cc1ccc(C(=O)O)cc1 | – | –
17 | 1.63 | 0.62 | 1.57 | N#Cc1ccc(C(=O)O)cc1 | – | –

Row | logD ([1]; pH 2, read-out: logD) | Log M (Rattus norvegicus [2]) | Log M (Rattus norvegicus [3]) | Structure (SMILES) | Log 1/C [4] | also measured
18 | 2.89 | – | – | CCc1ccc(C(=O)O)cc1 | – | –
19 | – | – | – | Cc1ccc(C(=O)O)cc1 [4-METHYLBENZOIC ACID] | – | logD [1]: 2.26
20 | 1.52 | – | – | O=C(O)c1ccccc1F | 1.82 | –
21 | 1.32 | -0.29 | -0.1 | CC(=O)Nc1cccc(C(=O)O)c1 | – | –
22 | 1.98 | 1.34 | 1.35 | COc1cccc(C(=O)O)c1 | 0.29 | –
23 | – | – | – | O=C(O)c1cccc(O)c1 [3-HYDROXYBENZOIC ACID] | -0.99 | logD [1]: 1.55
24 | 3.28 | – | – | CC(C)c1ccc(C(=O)O)cc1 | – | –
25 | – | 1.28 | 1.44 | O=C(O)c1ccccc1 [BENZOIC ACID] | – | –
26 | – | – | – | O=C(O)c1ccc(Cl)c(Cl)c1 | 2.47 | logD [1]: 3.25; Log LD50: -2.28
27 | 0.55 | – | – | NS(=O)(=O)c1ccc(C(=O)O)cc1 [CARZENIDE] | – | –
28 | – | 1.71 | 1.83 | Cc1cccc(C(=O)O)c1 | – | –
29 | -0.79 | 0.76 | 1.45 | Nc1cccc(C(=O)O)c1 [3-AMINOBENZOIC ACID] | -1 | –
30 | – | – | – | O=C(O)c1ccc(I)cc1 | 0.99 | logD [1]: 3.05; Log LD50: -2.31
31 | – | – | – | O=C(O)c1ccccc1Cl | 2.15 | logD [1]: 2.02; Log LD50 (Culicidae): -1.62
32 | – | – | – | O=C(O)c1cccc(I)c1 | 1.29 | logD [1]: 3.13
33 | 1.28 | 0.17 | 0.08 | CN(C)c1ccc(C(=O)O)cc1 | – | –
34 | – | 0.73 | 1.23 | O=C(O)c1cccc([N+](=O)[O-])c1 | 0.22 | logD [1]: 1.69

Row | Structure (SMILES) | logD ([1]; pH 2, read-out: logD) | Log M (Rattus norvegicus [2]) | Log M (Rattus norvegicus [3]) | Log 1/C [4] | also measured
35 | Nc1ccccc1C(=O)O [ANTHRANILIC ACID] | 0.51 | – | – | – | –
36 | O=C(O)c1cc(Cl)ccc1Cl | 2.82 | – | – | 1.63 | Log LD50: -1.77
37 | [N-]=[N+]=Nc1ccc(C(=O)O)cc1 | 2.54 | – | – | – | –
38 | O=C(O)c1ccc([N+](=O)[O-])cc1 [4-NITROBENZOIC ACID] | – | 0.79 | 1.02 | – | logD [1]: 1.84; Log LD50: -1.52
39 | O=C(O)c1ccc(O)cc1 [PARABEN] | 1.41 | – | – | -1.69 | Log LD50: -1.29
40 | COc1ccc(C(=O)O)cc1 [p-ANISIC ACID] | 1.95 | 1.09 | 1 | -0.66 | Log LD50: -1.6
41 | O=C(O)c1cccc2ccccc12 [NAPHTHOIC ACID] | 2.98 | – | – | – | Log LD50: -1.46
42 | N#Cc1cccc(C(=O)O)c1 | 1.65 | 0.69 | 0.95 | – | –
43 | O=C(O)c1cccc(Cl)c1 | – | 1.57 | 1.79 | 2.16 | logD [1]: 2.72; Log LD50: -2
44 | O=C(O)c1cc(I)cc(I)c1I [2,3,5-TRIIODOBENZOIC ACID] | 3.45 | – | – | – | –
45 | O=C(O)c1c(Cl)cccc1Cl | 1.8 | – | – | – | Log LD50: -1.22
46 | O=C(O)c1ccc(F)cc1 | 2.05 | – | – | 1.27 | Log LD50: -1.85
47 | Nc1ccc(C(=O)O)cc1 | 0.76 | 0.59 | 0.79 | -1.67 | Log LD50: -1.54
48 | O=C(O)c1ccc2ccccc2c1 [BETA-NAPHTOIC ACID] | 2.78 | – | – | – | Log LD50: -1.92
